Measurements: ChEMBL document CHEMBL4316626, “N-Acyl pyrazoles: Effective and tunable inhibitors of serine hydrolases” (Bioorg Med Chem, 2019)

Assay: Inhibition of recombinant rat FAAH deltaTM mutant expressed in Escherichia coli using 14C-labeled oleamide as substrate preincubated for 3 hrs followed by substrate addition and measured by TLC based Dixon-plot analysis
Settings: read-out: Ki(app)

Compound | Ki [nM]
CN(CCN(C)C(=O)n1cc(C#N)cn1)Cc1cccc(Oc2ccccc2)c1 | 1.2
Cc1cnn(C(=O)N(C)CCN(C)Cc2cccc(Oc3ccccc3)c2)c1 | 20
CN(CCN(C)C(=O)n1cccn1)Cc1cccc(Oc2ccccc2)c1 | 5.7
Cc1cnn(C(=O)NCc2ccc(Oc3ccccc3)cc2)c1 | 290
Cc1cnn(C(=O)OCc2ccc3ccccc3c2)c1 | > 5000
Cc1cnn(C(=O)Oc2ccc3ccccc3c2)c1 | > 5000
Cc1cnn(C(=O)OCc2ccc(Oc3ccccc3)cc2)c1 | 580
O=C(N1CCN(Cc2ccc3ccccc3c2)CC1)n1cc(Br)cn1 | 0.47
N#Cc1cnn(C(=O)N2CCN(Cc3cccc(OCc4ccccc4)c3)CC2)c1 | 0.15
O=C(N1CCN(Cc2cccc(OCc3ccccc3)c2)CC1)n1cccn1 | 5.8
Cc1ccc(CNC(=O)n2cc(C#N)cn2)cc1 | > 5000
Cc1cnn(C(=O)OCc2ccc(-c3ccccc3)cc2)c1 | > 5000
N#Cc1cnn(C(=O)OCc2ccc(Oc3ccccc3)cc2)c1 | 60
O=C(OCc1ccc2ccccc2c1)n1cccn1 | > 5000
N#Cc1cnn(C(=O)NCc2ccc3ccccc3c2)c1 | > 5000
Cc1cnn(C(=O)N2CCN(Cc3ccc(-c4ccccc4)cc3)CC2)c1 | 170
N#Cc1cnn(C(=O)NCCCc2ccccc2)c1 | 340
Cc1cnn(C(=O)OCCCCCc2ccccc2)c1 | > 5000
O=C(N1CCCN(Cc2cccc(OCc3ccccc3)c2)CC1)n1cccn1 | 12
Cc1cnn(C(=O)CCCCc2ccccc2)c1 | > 5000
N#Cc1cnn(C(=O)N2CCCN(Cc3ccc(Oc4ccccc4)cc3)CC2)c1 | 1
N#Cc1cnn(C(=O)N2CCN(Cc3ccc(-c4ccccc4)cc3)CC2)c1 | 0.19

Compound | Ki [nM]
Cc1cnn(C(=O)NCCCc2ccccc2)c1 | 3000
Cc1cnn(C(=O)NCCCCc2ccccc2)c1 | 550
COC(=O)c1cnn(C(=O)N2CCN(Cc3ccc4ccccc4c3)CC2)c1 | 0.36
Cc1cnn(C(=O)N2CCCN(C(=O)OC(C)(C)C)CC2)c1 | 2900
O=C(NCc1ccc(-c2ccccc2)cc1)n1cccn1 | > 5000
Cc1cnn(C(=O)OCCCCc2ccccc2)c1 | > 5000
O=C(N1CCCN(Cc2cccc(Oc3ccccc3)c2)CC1)n1cccn1 | 6.3
Cc1cnn(C(=O)N2CCCN(Cc3ccc(Oc4ccccc4)cc3)CC2)c1 | 110
O=C(N1CCN(Cc2ccccc2)CC1)n1cccn1 | 180
N#Cc1cnn(C(=O)CCCCCCc2ccccc2)c1 | > 5000
Cc1cnn(C(=O)N2CCN(Cc3cccc(Oc4ccccc4)c3)CC2)c1 | 45
N#Cc1cnn(C(=O)OCCCCCc2ccccc2)c1 | 4200
Cc1cnn(C(=O)Cc2ccc3ccccc3c2)c1 | 5000
O=C(NCc1ccc(Oc2ccccc2)cc1)n1cccn1 | 180
N#Cc1cnn(C(=O)CCCCc2ccccc2)c1 | > 5000
N#Cc1cnn(C(=O)NCCCCc2ccccc2)c1 | 18
N#Cc1cnn(C(=O)N2CCCN(Cc3cccc(OCc4ccccc4)c3)CC2)c1 | 0.7
Cc1cnn(C(=O)CCCCCc2ccccc2)c1 | > 5000
O=C(NCCCCc1ccccc1)n1cccn1 | 290
Cc1ccc(COC(=O)n2cc(C#N)cn2)cc1 | > 5000
N#Cc1cnn(C(=O)OCCCCc2ccccc2)c1 | 210
N#Cc1cnn(C(=O)N2CCN(Cc3ccccc3)CC2)c1 | 75

Compound | Ki [nM]
Cc1ccc(COC(=O)n2cc(C)cn2)cc1 | > 5000
O=C(N1CCN(Cc2cccc(Oc3ccccc3)c2)CC1)n1cccn1 | 6.1
Cc1cnn(C(=O)N2CCN(Cc3ccc(Oc4ccccc4)cc3)CC2)c1 | 210
N#Cc1cnn(C(=O)OCc2ccc(OCc3ccccc3)cc2)c1 | 145
Cc1cnn(C(=O)N(C)CCN(C)C(=O)OC(C)(C)C)c1 | 710
CN(CCN(C)C(=O)n1cccn1)C(=O)OC(C)(C)C | 80
Cc1cnn(C(=O)OCc2ccc(OCc3ccccc3)cc2)c1 | 1260
O=C(OCc1ccc(-c2ccccc2)cc1)n1cccn1 | > 5000
O=C(N1CCN(Cc2ccc3ccccc3c2)CC1)n1cc(I)cn1 | 0.29
Cc1cnn(C(=O)CCCCCCc2ccccc2)c1 | > 5000
CC(C)(C)OC(=O)N1CCN(C(=O)n2cc(C#N)cn2)CC1 | 55
CN(CCN(C)C(=O)n1cc(C#N)cn1)C(=O)OC(C)(C)C | 16
N#Cc1cnn(C(=O)NCc2ccc(-c3ccccc3)cc2)c1 | > 5000
Cc1cnn(C(=O)Cc2ccc(-c3ccccc3)cc2)c1 | > 5000
Cc1cnn(C(=O)N2CCN(Cc3ccccc3)CC2)c1 | 250
O=C(CCCCc1ccccc1)n1cccn1 | > 5000
Cc1cnn(C(=O)N2CCCN(Cc3cccc(OCc4ccccc4)c3)CC2)c1 | 210
N#Cc1cnn(C(=O)NCCCCCc2ccccc2)c1 | 18
O=C(Nc1ccc2ccccc2c1)n1cccn1 | > 5000
N#Cc1cnn(C(=O)OCc2ccc3ccccc3c2)c1 | > 5000
Cc1ccc(CNC(=O)n2cc(C)cn2)cc1 | > 5000
O=C(OCCCCCc1ccccc1)n1cccn1 | > 5000

Compound | Ki [nM]
O=C(NCc1ccc2ccccc2c1)n1cccn1 | > 5000
O=C(Oc1ccc2ccccc2c1)n1cccn1 | > 5000
O=C(Cc1ccc(-c2ccccc2)cc1)n1cccn1 | > 5000
O=C(NCCCCCc1ccccc1)n1cccn1 | 280
O=C(OCCCCc1ccccc1)n1cccn1 | 710
O=C(N1CCN(Cc2ccc(Oc3ccccc3)cc2)CC1)n1cccn1 | 9.2
O=C(NCCCc1ccccc1)n1cccn1 | 980
N#Cc1cnn(C(=O)N2CCN(Cc3cccc(Oc4ccccc4)c3)CC2)c1 | 0.19
Cc1ccc(CNC(=O)n2cccn2)cc1 | > 5000
N#Cc1cnn(C(=O)OCc2ccc(-c3ccccc3)cc2)c1 | > 5000
O=C(OCc1ccc(OCc2ccccc2)cc1)n1cccn1 | 260
N#Cc1cnn(C(=O)NCc2ccc(Oc3ccccc3)cc2)c1 | 9.8
O=C(N1CCCN(Cc2ccc(Oc3ccccc3)cc2)CC1)n1cccn1 | 9.3
O=C(OCCCc1ccccc1)n1cccn1 | > 5000
Cc1cnn(C(=O)NCc2ccc(-c3ccccc3)cc2)c1 | > 5000
Cc1cnn(C(=O)NCc2ccc3ccccc3c2)c1 | > 5000
Cc1cnn(C(=O)N2CCCN(Cc3cccc(Oc4ccccc4)c3)CC2)c1 | 75
O=C(OCc1ccc(Oc2ccccc2)cc1)n1cccn1 | 460
Cc1cnn(C(=O)N2CCN(Cc3cccc(OCc4ccccc4)c3)CC2)c1 | 25
N#Cc1cnn(C(=O)Cc2ccc3ccccc3c2)c1 | > 5000
CC(C)(C)OC(=O)N1CCN(C(=O)n2cccn2)CC1 | 340
Cc1cnn(C(=O)N2CCN(C(=O)OC(C)(C)C)CC2)c1 | 850

Compound | Ki [nM]
CC(C)(C)OC(=O)N1CCCN(C(=O)n2cccn2)CC1 | 620
N#Cc1cnn(C(=O)Oc2ccc3ccccc3c2)c1 | > 5000
Cc1cnn(C(=O)Nc2ccc3ccccc3c2)c1 | > 5000
CN(CCN(C)C(=O)n1cc(C#N)cn1)Cc1ccc(Oc2ccccc2)cc1 | 2
O=C(CCCCCc1ccccc1)n1cccn1 | > 5000
N#Cc1cnn(C(=O)Nc2ccc3ccccc3c2)c1 | > 5000
N#Cc1cnn(C(=O)N2CCN(Cc3ccc(Oc4ccccc4)cc3)CC2)c1 | 0.1
Cc1cnn(C(=O)N(C)CCN(C)Cc2ccc(Oc3ccccc3)cc2)c1 | 55
Cc1ccc(COC(=O)n2cccn2)cc1 | > 5000
Cc1cnn(C(=O)NCCCCCc2ccccc2)c1 | 560
N#Cc1cnn(C(=O)Cc2ccc(-c3ccccc3)cc2)c1 | > 5000
CC(C)(C)OC(=O)N1CCCN(C(=O)n2cc(C#N)cn2)CC1 | 50
N#Cc1cnn(C(=O)OCCCc2ccccc2)c1 | 3500
CN(CCN(C)C(=O)n1cccn1)Cc1ccc(Oc2ccccc2)cc1 | 10
N#Cc1cnn(C(=O)CCCCCc2ccccc2)c1 | > 5000
O=C(N1CCN(Cc2ccc(-c3ccccc3)cc2)CC1)n1cccn1 | 12
Cc1cnn(C(=O)OCCCc2ccccc2)c1 | > 5000
N#Cc1cnn(C(=O)N2CCCN(Cc3cccc(Oc4ccccc4)c3)CC2)c1 | 0.23
O=C(Cc1ccc2ccccc2c1)n1cccn1 | > 5000
O=C(CCCCCCc1ccccc1)n1cccn1 | > 5000
